Calls of active or inactive are those of the source. The rule behind the calls is not given here.
Tests used:
Format in all cases: functional, cell-based
[1] = system: HepG2; assay: Cytotoxicity against human HepG2 cells by MTT assay
[2] = system: BGC-823; assay: Cytotoxicity against human BGC823 cells by MTT assay
[3] = system: K562; assay: Cytotoxicity against human K562 cells by MTT assay
[4] = system: K562; assay: Cytotoxicity against human adriamycin resistant K562 cells by MTT assay

SMILES | Activity [1] | Activity [2] | Activity [3] | Activity [4] | IC50 [3]
CC1=CC(=O)C2=C(COC(=O)CC(C)C)C[C@H](OS(=O)(=O)O)[C@@H]3[C@H](OC(=O)[C@H]3C)[C@@H]12 | inactive | inactive | inactive | inactive | 
C=C1[C@@H]2[C@H]3OC(=O)[C@@H](CNCC4CCC(=O)O4)[C@@H]3CCC(=C)[C@@H]2C[C@@H]1O[C@@H]1O[C@H](CO)[C@@H](O)[C@H](O)[C@H]1O (stereo partly specified) | inactive | inactive | inactive | inactive | 
C=C1[C@@H]2[C@H]3OC(=O)[C@@H](CNCC4CCC(=O)O4)[C@@H]3CCC(=C)[C@@H]2C[C@@H]1O (stereo partly specified) [SCORZOAUSTRIACIN] | inactive | inactive |  | inactive | 11.3 µM
CC1=CC(=O)C2=C(COC(=O)CC(C)C)C[C@H](O)[C@@H]3[C@H](OC(=O)[C@H]3C)[C@@H]12 | inactive | inactive | inactive | inactive | 
